The nature of this data set: First-in-Human (FIH) Phase 1 study comparing QW and QD regimens. In kind it is in vivo. The conditions noted are these: QW preferred to QD. The protocol:
Both QW and QD regimens were evaluated in the First-in-Human (FIH) Phase 1 study. […] The observed data in indicate that having an uninterrupted coverage over IC90 for 1-2 days can improve cancer cell killing and maintaining Ctrough below IC50 can help normal cell recovery and can improve tolerability.

The structures appear in SMILES notation.

`Cc1cnc(NC2CCOCC2)nc1-n1cnc(C(=O)N[C@H](CN)c2cc(F)cc(Cl)c2)c1` [Compound 1, (S)—N-(2-amino-1-(3-chloro-5-fluorophenyl)ethyl)-1-(5-methyl-2-((tetrahydro-2H-pyran-4-yl)amino)pyrimidin-4-yl)-1H-imidazole-4-carboxamide]: the “Efficacy, QW regimen compared to QD regimen” value is listed as “better efficacy” and the “Skin toxicities, QW regimen compared to QD regimen” value is on record as “less frequent skin toxicities”.
